In experiment [1] the target is GDP-bound KRAS wild-type protein (Homo sapiens, UniProt P01116). The experiment can be described thus: Binding to KRAS by surface plasmon resonance (SPR), dissociation constant KD. As to conditions: Single Cycle Kinetics, 1:1 binding model. The method, boiled down: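 Affinity is measured by surface plasmon resonance at 30°C against captured, GDP-loaded RAS carrying a biotinylated Avi tag. Compounds are titrated by single-cycle kinetics, and KD comes from a 1:1 fit.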

Experiment [2] concerns the target GDP-bound NRAS wild-type protein (Homo sapiens, UniProt P01111). Description: Binding to NRAS by surface plasmon resonance (SPR), KD and KD ratio to KRAS. The settings on record: ratio of the KD value with respect to GDP-bound NRAS wild-type protein to the KD value with respect to KRAS. Put shortly:
(§1)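 GDP-loaded biotinylated Avi-tag RAS proteins (E. coli-expressed) captured on a Biotin CAPture chip at ~100–300 RU; single-cycle kinetics at 30°C, 100 µL/min, 75 s injections of rising compound concentrations. HBS pH 7.4 running buffer with 1 mM DTT, 10 mM MgCl2, 10 µM GDP, 4% DMSO. KD from 1:1 binding fit.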

The target in a further experiment is HRAS wild-type protein (Homo sapiens, UniProt P01112). Description: Binding to HRAS by surface plasmon resonance (SPR), KD and KD ratio to KRAS. As to conditions: ratio of the KD value with respect to HRAS wild-type protein to the KD value with respect to KRAS. Put shortly:
as §1

For experiment [3], the system named is human lung cancer strain NCI-H441. Format: cell-based. The method, boiled down: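 Readout: […] after the ATP-based reagent. Compound: serial dilutions in dimethyl sulfoxide.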

Chain of GDP-bound NRAS wild-type protein (P01111 whole entry): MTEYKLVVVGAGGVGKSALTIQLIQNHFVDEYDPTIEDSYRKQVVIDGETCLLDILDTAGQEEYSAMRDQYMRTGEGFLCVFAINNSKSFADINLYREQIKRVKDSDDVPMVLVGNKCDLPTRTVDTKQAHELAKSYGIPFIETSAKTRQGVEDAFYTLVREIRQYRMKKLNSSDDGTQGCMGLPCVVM
Chain of GDP-bound KRAS wild-type protein (P01116 1-188 isoform P01116-2): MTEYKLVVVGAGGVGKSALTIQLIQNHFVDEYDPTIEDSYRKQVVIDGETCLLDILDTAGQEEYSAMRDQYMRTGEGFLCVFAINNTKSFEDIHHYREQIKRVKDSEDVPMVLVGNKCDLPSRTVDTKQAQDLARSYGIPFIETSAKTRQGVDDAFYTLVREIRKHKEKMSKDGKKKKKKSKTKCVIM
Chain of HRAS wild-type protein (P01112 whole entry): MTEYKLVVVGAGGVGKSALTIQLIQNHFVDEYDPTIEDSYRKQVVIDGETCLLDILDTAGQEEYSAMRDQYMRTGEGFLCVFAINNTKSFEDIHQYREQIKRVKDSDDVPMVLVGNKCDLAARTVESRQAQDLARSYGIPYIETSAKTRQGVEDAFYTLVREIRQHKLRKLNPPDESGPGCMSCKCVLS

In experiment [1], `CCCOC[C@H]1C(=O)N[C@@H]([C@@H](C)CC)C(=O)N(C)CC(=O)N(C)[C@H]2C/C=C\CCN(C2=O)[C@@H](Cc2ccc(C(F)(F)F)cc2)C(=O)N(C)CC(=O)N[C@@H](CCc2ccc(C(F)(F)F)c(OC)c2)C(=O)N2C[C@H](OCC)C[C@H]2C(=O)NC2(CCC2)C(=O)N(C)[C@@H](C2CCCC2)C(=O)N(C)[C@H](C(=O)N(C)CCC)CC(=O)N1C` [PP2017] gave a Kd of 0.093 nM. In addition, the “NRAS /KRAS” value in experiment [2] is “A (a compound having 10 or more and less than 20 is denoted as A)”. Besides, the “HRAS /KRAS” value on HRAS wild-type protein was “A (a compound having 10 or more and less than 20 is denoted as A)”. This molecule returned an IC50 in experiment [3] of 2.5 nM.
For the molecule `CCO[C@@H]1C[C@H]2C(=O)NC3(CCC3)C(=O)N(C)[C@@H](C3CCCC3)C(=O)N(C)[C@H](C(=O)N(C)CC)CC(=O)N(C)[C@@H](C3CCC3)C(=O)N[C@@H]([C@@H](C)CC)C(=O)N(C)CC(=O)N(C)[C@H]3C/C=C\CCN(C3=O)[C@@H](Cc3ccc(C(F)(F)F)cc3)C(=O)N(C)CC(=O)N[C@@H](CCc3ccc(C(F)(F)F)c(OC)c3)C(=O)N2C1` [PP2022], the Kd in experiment [1] was found to be 0.11 nM. In addition, the “NRAS /KRAS” value in experiment [2] was “A (a compound having 10 or more and less than 20 is denoted as A)”. For the same molecule, the “HRAS /KRAS” value on HRAS wild-type protein was “A (a compound having 10 or more and less than 20 is denoted as A)”. Moreover, half-maximal inhibition in experiment [3] (IC50) required 2.7 nM.
`CCCN(C)C(=O)[C@@H]1CC(=O)N(C)[C@@H](C2CCC2)C(=O)N[C@@H]([C@@H](C)CC)C(=O)N(C)CC(=O)N(C)[C@H]2C/C=C\CCN(C2=O)[C@@H](Cc2ccc(C(F)(F)F)cc2)C(=O)N(C)CC(=O)N[C@@H](CCc2ccc(C(F)(F)F)c(OC)c2)C(=O)N2C[C@H](OCC)C[C@H]2C(=O)NC2(CCC2)C(=O)N(C)[C@@H](C2CCCC2)C(=O)N1C` [PP2023] displayed a Kd in experiment [1] of 0.11 nM. Further, in experiment [2], the “NRAS /KRAS” value was “A (a compound having 10 or more and less than 20 is denoted as A)”. Besides, the “HRAS /KRAS” value on HRAS wild-type protein is “B (a compound having 3 or more and less than 10 is denoted as B)”. The IC50 in experiment [3] worked out at 10.5 nM.
For `CCCN(C)C(=O)[C@@H]1CC(=O)N(C)[C@@H](CC(F)F)C(=O)N[C@@H]([C@@H](C)CC)C(=O)N(C)CC(=O)N(C)[C@H]2C/C=C\CCN(C2=O)[C@@H](Cc2ccc(C(F)(F)F)cc2)C(=O)N(C)CC(=O)N[C@@H](CCc2ccc(C(F)(F)F)c(OC)c2)C(=O)N2C[C@@H](C)C[C@H]2C(=O)NC2(CCC2)C(=O)N(C)[C@@H](C2CCCC2)C(=O)N1C` [PP2024], the affinity in experiment [1], expressed as Kd, was 0.082 nM. Also, in experiment [2], the “NRAS /KRAS” value is “A (a compound having 10 or more and less than 20 is denoted as A)”. Moreover, on HRAS wild-type protein, the “HRAS /KRAS” value was “B (a compound having 3 or more and less than 10 is denoted as B)”. This molecule yielded a concentration for half-maximal inhibition (IC50) in experiment [3] of 10.1 nM.
As for `CCCN(C)C(=O)[C@@H]1CC(=O)N(C)[C@@H](COCC)C(=O)N[C@@H]([C@@H](C)CC)C(=O)N(C)CC(=O)N(C)[C@H]2C/C=C\CCN(C2=O)[C@@H](Cc2ccc(C(F)(F)F)cc2)C(=O)N(C)CC(=O)N[C@@H](CCc2ccc(C(F)(F)F)c(OC)c2)C(=O)N2C[C@@H](C)C[C@H]2C(=O)NC2(CCC2)C(=O)N(C)[C@@H](C2CCCC2)C(=O)N1C` [PP2025], the Kd in experiment [1] came out at 0.061 nM. Moreover, the “NRAS /KRAS” value in experiment [2] was “A (a compound having 10 or more and less than 20 is denoted as A)”. Moreover, on HRAS wild-type protein, the “HRAS /KRAS” value is “B (a compound having 3 or more and less than 10 is denoted as B)”. Also, the IC50 in experiment [3] was determined as 13.4 nM.
Take `CCCOC[C@H]1C(=O)N[C@@H]([C@@H](C)CC)C(=O)N(C)CC(=O)N(C)[C@H]2C/C=C\CCN(C2=O)[C@@H](Cc2ccc(C(F)(F)F)cc2)C(=O)N(C)CC(=O)N[C@@H](CCc2ccc(C(F)(F)F)c(OC)c2)C(=O)N2C[C@@H](C)C[C@H]2C(=O)NC2(CCC2)C(=O)N(C)[C@@H](C2CCCC2)C(=O)N(C)[C@H](C(=O)N(C)CC)CC(=O)N1C` [PP2027]: binding in experiment [1] was put at a Kd of 0.11 nM. Moreover, the “NRAS /KRAS” value in experiment [2] is “A (a compound having 10 or more and less than 20 is denoted as A)”. Moreover, the “HRAS /KRAS” value at HRAS wild-type protein is “B (a compound having 3 or more and less than 10 is denoted as B)”. For the same molecule, it took 14 nM to reach half-maximal inhibition in experiment [3] (IC50).
In turn, `CCCOC[C@H]1C(=O)N[C@@H]([C@@H](C)CC)C(=O)N(C)CC(=O)N(C)[C@H]2C/C=C\CCN(C2=O)[C@@H](Cc2ccc(C(F)(F)F)cc2)C(=O)N(C)CC(=O)N[C@@H](CCc2ccc(C(F)(F)F)c(OC)c2)C(=O)N2C[C@@H](C)C[C@H]2C(=O)NC2(CCC2)C(=O)N(C)[C@@H](C2CCCC2)C(=O)N(C)[C@H](C(=O)N(C)CCC)CC(=O)N1C` [PP2028] registered a Kd in experiment [1] of 0.11 nM. Besides, the “NRAS /KRAS” value in experiment [2] was “A (a compound having 10 or more and less than 20 is denoted as A)”. Further, the “HRAS /KRAS” value at HRAS wild-type protein was “B (a compound having 3 or more and less than 10 is denoted as B)”. In experiment [3], this molecule had an IC50 of 17.5 nM.
As for `CCCN(C)C(=O)[C@@H]1CC(=O)N(C)[C@@H](CCOC)C(=O)N[C@@H]([C@@H](C)CC)C(=O)N(C)CC(=O)N(C)[C@H]2C/C=C\CCN(C2=O)[C@@H](Cc2ccc(C(F)(F)F)cc2)C(=O)N(C)CC(=O)N[C@@H](CCc2ccc(C(F)(F)F)c(OC)c2)C(=O)N2C[C@@H](C)C[C@H]2C(=O)NC2(CCC2)C(=O)N(C)[C@@H](C2CCCC2)C(=O)N1C` [PP2029], the Kd in experiment [1] was found to be 0.069 nM. Further, in experiment [2], the “NRAS /KRAS” value is “A (a compound having 10 or more and less than 20 is denoted as A)”. Moreover, the “HRAS /KRAS” value at HRAS wild-type protein was “B (a compound having 3 or more and less than 10 is denoted as B)”. The 50% inhibitory concentration (IC50) in experiment [3] is 18.9 nM.
As for `CCCN(C)C(=O)[C@@H]1CC(=O)N(C)[C@@H](C2CC2)C(=O)N[C@@H]([C@@H](C)CC)C(=O)N(C)CC(=O)N(C)[C@H]2C/C=C\CCN(C2=O)[C@@H](Cc2ccc(C(F)(F)F)cc2)C(=O)N(C)CC(=O)N[C@@H](CCc2cc(F)c(C(F)(F)F)c(F)c2)C(=O)N2C[C@H](OCC)C[C@H]2C(=O)NC2(CC(C)(C)C2)C(=O)N(C)[C@@H](C2CCCC2)C(=O)N1C` [PP2037], the Kd in experiment [1] turned out to be 0.12 nM. Besides, the “NRAS /KRAS” value in experiment [2] was “A (a compound having 10 or more and less than 20 is denoted as A)”. On HRAS wild-type protein, the “HRAS /KRAS” value is “A (a compound having 10 or more and less than 20 is denoted as A)”. This molecule also had a half-maximal inhibitory concentration (IC50) in experiment [3] of 16 nM.
As for `CCC[C@H]1C(=O)N[C@@H]([C@@H](C)CC)C(=O)N(CCC)CC(=O)N(C)[C@H]2C/C=C\CCN(C2=O)[C@@H](Cc2ccc(C)cc2)C(=O)N(C)CC(=O)N[C@@H](CCc2ccc(C(F)(F)F)c(OC)c2)C(=O)N2C[C@H](OCC)C[C@H]2C(=O)NC2(CC(C)(C)C2)C(=O)N(C)[C@@H](C2CCCC2)C(=O)N(C)[C@H](C(=O)N(C)C)CC(=O)N1C` [PP2054], binding in experiment [1] was characterised by a dissociation constant (Kd) of 0.41 nM. The “NRAS /KRAS” value in experiment [2] is “A (a compound having 10 or more and less than 20 is denoted as A)”. The “HRAS /KRAS” value on HRAS wild-type protein is “A (a compound having 10 or more and less than 20 is denoted as A)”. This molecule displayed an IC50 in experiment [3] of 8.5 nM.
Turning to `C=CCN1CC(=O)N(C)[C@H]2C/C=C\CCN(C2=O)[C@@H](Cc2ccc(C)cc2)C(=O)N(C)CC(=O)N[C@@H](CCc2ccc(C(F)(F)F)c(OC)c2)C(=O)N2C[C@H](OCC)C[C@H]2C(=O)NC2(CC(C)(C)C2)C(=O)N(C)[C@@H](C2CCCC2)C(=O)N(C)[C@H](C(=O)N(C)C)CC(=O)N(C)[C@@H](CC(C)C)C(=O)N[C@@H]([C@@H](C)CC)C1=O` [PP2058], in experiment [1], the dissociation constant Kd was 0.21 nM. Besides, the “NRAS /KRAS” value in experiment [2] is “A (a compound having 10 or more and less than 20 is denoted as A)”. Also, the “HRAS /KRAS” value at HRAS wild-type protein is “A (a compound having 10 or more and less than 20 is denoted as A)”. Further, the IC50 in experiment [3] was found to be 3.7 nM.
For the molecule `C#CC[C@H]1C(=O)N[C@@H]([C@@H](C)CC)C(=O)N(C)CC(=O)N(C)[C@H]2C/C=C\CCN(C2=O)[C@@H](Cc2ccc(C(F)(F)F)cc2)C(=O)N(C)CC(=O)N[C@@H](CCc2ccc(C(F)(F)F)c(OC)c2)C(=O)N2C[C@@H](C)C[C@H]2C(=O)NC2(CCC2)C(=O)N(C)[C@@H](C2CCCC2)C(=O)N(C)[C@H](C(=O)N(C)CCC)CC(=O)N1C` [PP2063], binding in experiment [1] was characterised by a dissociation constant (Kd) of 0.09 nM. Besides, the “NRAS /KRAS” value in experiment [2] is on record as “AA (a compound having 20 or more is denoted as AA)”. In addition, the “HRAS /KRAS” value on HRAS wild-type protein was “A (a compound having 10 or more and less than 20 is denoted as A)”. The molecule also had an IC50 in experiment [3] of 13.6 nM.
Molecule `CCC[C@H]1C(=O)N[C@@H]([C@@H](C)CC)C(=O)N(C)CC(=O)N(C)[C@H]2C/C=C\CCN(C2=O)[C@@H](Cc2ccc(C)cc2)C(=O)N(C)CC(=O)N[C@@H](CCc2cc(F)c(C(F)(F)F)c(F)c2)C(=O)N2C[C@H](OCC)C[C@H]2C(=O)NC2(CC(C)(C)C2)C(=O)N(C)[C@@H](C(CC)CC)C(=O)N(C)[C@H](C(=O)N(C)C)CC(=O)N1C` [PP2064] gave a Kd in experiment [1] of 0.26 nM. Further, in experiment [2], the “NRAS /KRAS” value was “A (a compound having 10 or more and less than 20 is denoted as A)”. The “HRAS /KRAS” value at HRAS wild-type protein is “A (a compound having 10 or more and less than 20 is denoted as A)”. The same molecule yielded an IC50 in experiment [3] of 13.6 nM.
Take `CC[C@H](C)[C@@H]1NC(=O)[C@H](C2CCC2)N(C)C(=O)C[C@@H](C(=O)N(C)CC)N(C)C(=O)[C@H](C2CCCC2)N(C)C(=O)C2(CCC2)NC(=O)[C@@H]2C[C@H](C)CN2C(=O)[C@H](CCc2cc(F)c(C(F)(F)F)c(F)c2)NC(=O)CN(C)C(=O)[C@H](Cc2ccc(C(F)(F)F)cc2)N2CC/C=C\C[C@@H](C2=O)N(C)C(=O)CN(C)C1=O` [PP2082]: binding in experiment [1] was put at a Kd of 0.11 nM. Also, in experiment [2], the “NRAS /KRAS” value was “AA (a compound having 20 or more is denoted as AA)”. Also, the “HRAS /KRAS” value on HRAS wild-type protein was “A (a compound having 10 or more and less than 20 is denoted as A)”. In experiment [3], it took 7.8 nM to reach half-maximal inhibition (IC50).
